We go through nine compounds from ChEMBL document CHEMBL3045463, “Cross-resistance study and biochemical mechanisms of thiamethoxam resistance in B-biotype Bemisia tabaci (Hemiptera: Aleyrodidae)” (2010).

What is called LC50 is the concentration that kills 50% of the test population.

Converted amounts (≈) assume the structure as drawn.

Format in all cases: functional
The subject of assay [1] is Bemisia tabaci. Nature of the assay: Cross resistant, ratio of LC50 for B-biotype thiamethoxam-resistant Bemisia tabaci (sweet potato whitefly) to LC50 for B-biotype thiamethoxam-sensitive Bemisia tabaci (sweet potato whitefly).
For assay [2], the system named is Bemisia tabaci. Nature of the assay: Insecticidal activity against B-biotype thiamethoxam-sensitive Bemisia tabaci (sweet potato whitefly) in cabbage leaf assessed as mortality after 48 hr by leaf disk assay. The note with it: foliar.
Assay [3] deals with Bemisia tabaci. The assay is described as follows: Insecticidal activity against B-biotype thiamethoxam-resistant Bemisia tabaci (sweet potato whitefly) in cabbage leaf assessed as mortality after 48 hr by leaf disk assay. The note with it: foliar.
Assay [4] relates to Bemisia tabaci. The assay is described as follows: Insecticidal activity against B-biotype thiamethoxam-sensitive Bemisia tabaci (sweet potato whitefly) in cabbage leaf assessed as mortality after 48 hr by leaf disk assay in presence of piperonyl butoxide. The note with it: foliar.
In assay [5] the test system is Bemisia tabaci. The assay is described as follows: Insecticidal activity against B-biotype Bemisia tabaci (sweet potato whitefly) in cabbage leaf assessed as mortality after 48 hr by leaf disk assay. As to conditions: foliar.
Assay [6] has as its system Bemisia tabaci. The assay is described as follows: Synergism ratio, Ratio of LC50 for B-biotype thiamethoxam-sensitive Bemisia tabaci (sweet potato whitefly) to LC50 for B-biotype thiamethoxam-sensitive Bemisia tabaci (sweet potato whitefly) in presence of triphenyl phosphate.
Assay [7] deals with Bemisia tabaci. The assay is described as follows: Synergism ratio, Ratio of LC50 for B-biotype thiamethoxam-resistant Bemisia tabaci (sweet potato whitefly) to LC50 for B-biotype thiamethoxam-resistant Bemisia tabaci (sweet potato whitefly) in presence of triphenyl phosphate.
The test system of assay [8] is Bemisia tabaci. Nature of the assay: Insecticidal activity against B-biotype thiamethoxam-sensitive Bemisia tabaci (sweet potato whitefly) in cabbage leaf assessed as mortality after 48 hr by leaf disk assay in presence of diethylmaleate. As to conditions: foliar.
The test system of assay [9] is Bemisia tabaci. Nature of the assay: Resistant ratio, ratio of LC50 for T28 generation of B-biotype Bemisia tabaci (sweet potato whitefly) to LC50 for B-biotype Bemisia tabaci (sweet potato whitefly).
Assay [10] relates to Bemisia tabaci. Nature of the assay: Synergism ratio, Ratio of LC50 for B-biotype thiamethoxam-resistant Bemisia tabaci (sweet potato whitefly) to LC50 for B-biotype thiamethoxam-resistant Bemisia tabaci (sweet potato whitefly) in presence of piperonyl butoxide.
The subject of assay [11] is Bemisia tabaci. Nature of the assay: Synergism ratio, Ratio of LC50 for B-biotype thiamethoxam-resistant Bemisia tabaci (sweet potato whitefly) to LC50 for B-biotype thiamethoxam-resistant Bemisia tabaci (sweet potato whitefly) in presence of diethylmaleate.
The subject of assay [12] is Bemisia tabaci. Nature of the assay: Insecticidal activity against B-biotype thiamethoxam-resistant Bemisia tabaci (sweet potato whitefly) in cabbage leaf assessed as mortality after 48 hr by leaf disk assay in presence of diethylmaleate. As to conditions: foliar.
For assay [13], the system named is Bemisia tabaci. The assay is described as follows: Synergism ratio, Ratio of LC50 for B-biotype thiamethoxam-sensitive Bemisia tabaci (sweet potato whitefly) to LC50 for B-biotype thiamethoxam-sensitive Bemisia tabaci (sweet potato whitefly) in presence of diethylmaleate.
Assay [14] deals with Bemisia tabaci. The assay is described as follows: Insecticidal activity against T30 generation of B-biotype Bemisia tabaci (sweet potato whitefly) in cabbage leaf assessed as mortality after 48 hr by leaf disk assay. As to conditions: foliar.
Assay [15] deals with Bemisia tabaci. Nature of the assay: Synergism ratio, Ratio of LC50 for B-biotype thiamethoxam-sensitive Bemisia tabaci (sweet potato whitefly) to LC50 for B-biotype thiamethoxam-sensitive Bemisia tabaci (sweet potato whitefly) in presence of piperonyl butoxide.
The subject of assay [16] is Bemisia tabaci. Nature of the assay: Insecticidal activity against B-biotype thiamethoxam-resistant Bemisia tabaci (sweet potato whitefly) in cabbage leaf assessed as mortality after 48 hr by leaf disk assay in presence of triphenyl phosphate. The note with it: foliar.
In assay [17] the test system is Bemisia tabaci. The assay is described as follows: Insecticidal activity against B-biotype thiamethoxam-sensitive Bemisia tabaci (sweet potato whitefly) in cabbage leaf assessed as mortality after 48 hr by leaf disk assay in presence of triphenyl phosphate. The note with it: foliar.
In assay [18] the test system is Bemisia tabaci. Nature of the assay: Insecticidal activity against T17 generation of B-biotype Bemisia tabaci (sweet potato whitefly) in cabbage leaf assessed as mortality after 48 hr by leaf disk assay. As to conditions: foliar.
For assay [19], the system named is Bemisia tabaci. The assay is described as follows: Insecticidal activity against T28 generation of B-biotype Bemisia tabaci (sweet potato whitefly) in cabbage leaf assessed as mortality after 48 hr by leaf disk assay. As to conditions: foliar.
Assay [20] has as its system Bemisia tabaci. The assay is described as follows: Resistant ratio, ratio of LC50 for T30 generation of B-biotype Bemisia tabaci (sweet potato whitefly) to LC50 for B-biotype Bemisia tabaci (sweet potato whitefly).
Assay [21] has as its system Bemisia tabaci. The assay is described as follows: Insecticidal activity against T33 generation of B-biotype Bemisia tabaci (sweet potato whitefly) in cabbage leaf assessed as mortality after 48 hr by leaf disk assay. The note with it: foliar.
The subject of assay [22] is Bemisia tabaci. Nature of the assay: Insecticidal activity against B-biotype thiamethoxam-resistant Bemisia tabaci (sweet potato whitefly) in cabbage leaf assessed as mortality after 48 hr by leaf disk assay in presence of piperonyl butoxide. As to conditions: foliar.
The subject of assay [23] is Bemisia tabaci. Nature of the assay: Resistant ratio, ratio of LC50 for T17 generation of B-biotype Bemisia tabaci (sweet potato whitefly) to LC50 for B-biotype Bemisia tabaci (sweet potato whitefly).
Assay [24] concerns Bemisia tabaci. The assay is described as follows: Resistant ratio, ratio of LC50 for T33 generation of B-biotype Bemisia tabaci (sweet potato whitefly) to LC50 for B-biotype Bemisia tabaci (sweet potato whitefly).

As for `CC[C@H](C)[C@H]1O[C@]2(C=C[C@@H]1C)C[C@@H]1C[C@@H](C/C=C(\C)[C@@H](O[C@H]3C[C@H](OC)[C@@H](O[C@H]4C[C@H](OC)[C@@H](O)[C@H](C)O4)[C@H](C)O3)[C@@H](C)/C=C/C=C3\CO[C@@H]4[C@H](O)C(C)=C[C@@H](C(=O)O1)[C@]34O)O2.CO[C@H]1C[C@H](O[C@H]2[C@H](C)O[C@@H](O[C@@H]3/C(C)=C/C[C@@H]4C[C@@H](C[C@]5(C=C[C@H](C)[C@@H](C(C)C)O5)O4)OC(=O)[C@@H]4C=C(C)[C@@H](O)[C@H]5OC/C(=C\C=C\[C@@H]3C)[C@]54O)C[C@@H]2OC)O[C@@H](C)[C@@H]1O` [ABAMECTIN], the RatioLC50 in the assay on Bemisia tabaci [1] is 5.33. Besides, the LC50 was found to be 0.12 µg/mL with Bemisia tabaci [2] and 0.64 µg/mL in the assay with Bemisia tabaci [3].

`C/C(=N\C#N)N(C)Cc1ccc(Cl)nc1` [ACETAMIPRID]: the RatioLC50 in the assay with Bemisia tabaci [1] worked out at 35.8. The LC50 worked out at 1.98 µg/mL (≈ 8.89 µM) with Bemisia tabaci [2] and 70.9 µg/mL (≈ 318 µM) in the assay with Bemisia tabaci [3].

Turning to `CCCCN(CCCC)SN(C)C(=O)Oc1cccc2c1OC(C)(C)C2` [CARBOSULFAN], the RatioLC50 with Bemisia tabaci [1] was 4.43. In addition, the figures for the LC50 in the assay with Bemisia tabaci [2] and in the assay with Bemisia tabaci [3] were 441 µg/mL (≈ 1160 µM) and 1960 µg/mL (≈ 5140 µM), respectively.

Turning to `CCOP(=S)(OCC)Oc1nc(Cl)c(Cl)cc1Cl` [CHLORPYRIFOS], the RatioLC50 in the assay on Bemisia tabaci [1] is listed as 1.03. The results for the LC50 in the assay with Bemisia tabaci [2] and in the assay with Bemisia tabaci [3] were 601 µg/mL (≈ 1710 µM) and 621 µg/mL (≈ 1770 µM), respectively.

As to `CC1(C)[C@H](C(=O)O[C@H](C#N)c2cccc(Oc3ccccc3)c2)[C@@H]1C=C(Br)Br` [DELTAMETHRIN], the RatioLC50 with Bemisia tabaci [1] worked out at 1.16. The 50% lethal concentration (LC50) in the assay on Bemisia tabaci [2] stood at 701 µg/mL (≈ 1390 µM); in the assay on Bemisia tabaci [3], 810 µg/mL (≈ 1600 µM).

As for `N#Cc1nn(-c2c(Cl)cc(C(F)(F)F)cc2Cl)c(N)c1[S+]([O-])C(F)(F)F` (stereo not drawn) [FIPRONIL], the RatioLC50 with Bemisia tabaci [1] is 1.08. Besides, the LC50 in the assay on Bemisia tabaci [2] was 4.11 µg/mL (≈ 9.4 µM); in the assay on Bemisia tabaci [3], 4.45 µg/mL (≈ 10.2 µM).

Regarding `O=[N+]([O-])/N=C1\NCCN1Cc1ccc(Cl)nc1` [IMIDACLOPRID], the RatioLC50 with Bemisia tabaci [1] is recorded as 47.3. Further, the LC50 was 8.72 µg/mL (≈ 34.1 µM) in the assay with Bemisia tabaci [2] and 412 µg/mL (≈ 1610 µM) in the assay on Bemisia tabaci [3].

For `CCN(Cc1ccc(Cl)nc1)/C(=C/[N+](=O)[O-])NC` [NITENPYRAM], the RatioLC50 in the assay with Bemisia tabaci [1] turned out to be 9.99. For the same compound, the values for the median lethal concentration (LC50) in the assay on Bemisia tabaci [2] and in the assay with Bemisia tabaci [3] were 2.22 µg/mL (≈ 8.2 µM) and 22.2 µg/mL (≈ 82 µM), respectively.

Regarding `CN1COCN(Cc2cnc(Cl)s2)/C1=N\[N+](=O)[O-]` [THIAMETHOXAM], the LC50 with Bemisia tabaci [4] turned out to be 15 µg/mL; with Bemisia tabaci [5] it was 17.6 µg/mL (≈ 60.3 µM); with Bemisia tabaci [2] it was 17.6 µg/mL (≈ 60.3 µM); with Bemisia tabaci [8], 18.5 µg/mL; in the assay on Bemisia tabaci [12] it was 452 µg/mL; in the assay on Bemisia tabaci [3], 450 µg/mL (≈ 1540 µM). Moreover, the LC50 turned out to be 451 µg/mL (≈ 1550 µM) in the assay with Bemisia tabaci [14]; 189 µg/mL in the assay with Bemisia tabaci [16]; 17.6 µg/mL in the assay on Bemisia tabaci [17]; 169 µg/mL (≈ 579 µM) with Bemisia tabaci [18]; 334 µg/mL (≈ 1140 µM) in the assay on Bemisia tabaci [19]; 1160 µg/mL (≈ 3990 µM) in the assay on Bemisia tabaci [21]. For the same compound, the LC50 with Bemisia tabaci [22] was 143 µg/mL. The RatioLC50 with Bemisia tabaci [1] amounted to 25.6; in the assay with Bemisia tabaci [6], 1; in the assay with Bemisia tabaci [7], 2.37; with Bemisia tabaci [9] it was 19; with Bemisia tabaci [10] it was 3.14; in the assay with Bemisia tabaci [11], 0.99. Moreover, the RatioLC50 in the assay on Bemisia tabaci [13] came out at 0.95; with Bemisia tabaci [15] it was 1.17; in the assay on Bemisia tabaci [20] it was 25.6; in the assay on Bemisia tabaci [23] it was 9.62; in the assay on Bemisia tabaci [24], 66.3.
